Source: patent US11401303B2, “Synthetic peptide BRAP and application in preparation of anti-inflammatory drug for COVID-19 thereof” (TAIAN CITY QIHANG BIOTECHNOLOGY CO., priority 2020, dated 2022)
Ends that are not written are not given here.

What was measured:
[1] = test system: BK-induced pulmonary microvascular leakage; assay: BK-induced pulmonary microvascular leakage in guinea pigs (Evans blue in lung tissue); type: in vivo, guinea pig; conditions: intranasal 50 μL/side/day for 3 days
Description: Male guinea pigs weighing 400 g±5% were randomly divided into 6 groups, 6 per group.
1. normal control group: an equal volume of normal saline was injected intravenously on the lateral foot vein, for 3 days;
2. model group: an equal volume of normal saline was injected intravenously on the lateral foot vein, for 3 days;
3. positive control group: 1.25 mg/3 ml/kg BW dexamethasone was injected intravenously on the lateral foot vein, for 3 days;
4. high-dose synthetic peptide brap group: bilateral nasal cavities of the guinea pig were injected the synthetic peptide brap having a concentration of 3.0 mM/L by a micro-sampling gun with 50 μL/side/day for 3 days; […]
2. […] The solution was centrifuged for 5 min at 1500 rpm/min; supernatant was taken to measure the absorbance with a wavelength of 620 nm.
3. Preparation of an EB standard curve: 0.1 mL 0.1% EB solution was taken accurately and added 0.9 mL normal saline to be prepared into 1 mL 0.01% EB standard solution; 0.1 mL EB standard solution was taken and added formamide to 2 mL with a final concentration of 5 mg/L; then the solution was diluted by formamide to 4, 2, 1, and 0.5 mg/L. An absorbancy OD value was measured at a wavelength of 620 nm; OD value was denoted y-coordinate; EB concentration was denoted by x-coordinate; then a standard curve of OD value-EB concentration was drawn, as shown in FIG. 7A.

endotoxin = assay: Endotoxin content in blood of LPS-induced mice (LAL kit); type: in vivo, Balb/C mice; conditions: low, medium and high dose (4, 8, 16 mg/kgBW i.v.); 6 h after LPS 5 mg/kg BW i.p.; dose-response relationship
Description: The detection was performed according to the specification of the endotoxin test LAL (Limulus Amebocyte Lysate) kit:
(1) anticoagulant venous blood of each group of mice constructed in example 9 was taken and centrifuged for 2 min at 3000 rpm/min; 100 ul supernate was taken and added to a 0.9 ml sample treating fluid;
(2) the above sample was put in a 70° C. dry-heat sterilization box for 10 min, then cooled by running water;
(3) concentration gradient of an endotoxin standard was 1.0, 0.5, 0.25 and 0.1 EU/ml;
(4) several endotoxin-free test tubes were taken, and 100 ul water for detecting bacterial endotoxin, an endotoxin standard and a test product were added respectively;
(6) 100 ul TAL solution was added, mixed evenly, and covered by a silver paper, and incubated for 10 min at 37° C.;
(7) 100 ul developing-matrix solution was added, mixed evenly, and incubated for 6 min at 37° C.;
(8) 500 ul azo reagent 1 was added and mixed evenly;
(9) 500 ul azo reagent 2 was added and mixed evenly;
(10) 500 ul azo reagent 3 was added, mixed evenly, standing for 5 min;
(11) OD value was measured at 545 nm.

TNF-a = TNF-a content in blood serum of LPS-induced mice (ELISA); type: in vivo, Balb/C mice
Description: 1. A reagent was taken out of a kit and balanced for 30 min at room temperature;
2. standard wells and sample wells were set, and 50 ul standards at different concentrations were respectively added to each standard well.
3. 50 ul sample to be tested (blood sample from each group of mice model constructed in example 9) was first added to the wells of the sample to be tested;
4. 100 ul HRP-labeled detection antibody was respectively added to each standard well and well to be tested;
5. reaction wells were sealed by a microplate membrane for incubation for 60 min at 37° C.;
6. liquid was discarded, water was dried by an absorbent paper, each well was filled with scrubbing solution, standing for 1 min;
7. a culture solution was discarded, water was dried by an absorbent paper, and steps 2-6 were operated repeatedly for 5 times;
8. 50 ul substrate A/B was respectively added to each well for incubation for 15 min at 37° C.;
9. 50 ul stop buffer was added to each well to detect an OD value at 450 nm by an microplate reader within 15 min.

Bradykinin B1 receptor = molecular target: T1, Bradykinin B1 receptor (Homo sapiens, UniProt P46663); type: cell-based
T1 construct: host or cells: HEK293/Gα15/B1
T1 sequence (P46663 1-353): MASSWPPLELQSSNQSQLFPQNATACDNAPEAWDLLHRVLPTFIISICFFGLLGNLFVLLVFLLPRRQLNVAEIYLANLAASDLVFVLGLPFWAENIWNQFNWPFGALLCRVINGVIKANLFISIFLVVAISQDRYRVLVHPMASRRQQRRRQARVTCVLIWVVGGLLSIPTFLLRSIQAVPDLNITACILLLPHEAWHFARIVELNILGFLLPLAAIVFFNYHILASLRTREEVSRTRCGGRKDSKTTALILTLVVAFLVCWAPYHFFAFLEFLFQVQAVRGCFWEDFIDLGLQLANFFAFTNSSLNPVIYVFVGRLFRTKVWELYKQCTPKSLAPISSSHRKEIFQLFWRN

RVLNGPEAPA [brap]
Content of EB in lung tissues compared with the positive control group (dexamethasone) ([1]; P>0.05, except for the low-dose group): no significant difference | Content of EB in lung tissues compared with the model group ([1]; low, medium, high dose (0.33, 1.0, 3.0 mM/L), P<0.01, dose-response relationship): obviously lower than that in the model group | Blood endotoxin level compared with the model group (endotoxin): obviously below that in the model group | TNF-a level in serum compared with the model group (TNF-a; low, medium and high-dose intravenous injection groups, p<0.01): dose-response relationship | TNF-a level in LPS-induced blood (TNF-a; nasal dripping group, at 12 h, P<0.05): can decrease | Effect of compound acting together with EC10 and EC20 (Bradykinin B1 receptor): no obvious effect | Inhibitory activity on B1 receptor activation by EC80 irritant (Bradykinin B1 receptor): obviously inhibited
